Among the test systems are TPL-EAK16; TPL-DKL6; TPL-GFIL16; TPL-ELP10.
Common to all, as to assay: Lineweaver-Burk, initial rates
Type in all cases: biochemical
Holding throughout (conditions): 20 °C, PLP 30 µM, 0.1-6 mM L-DOPA

The test system of the next experiment is TPL-18A. An excerpt:
Lineweaver-Burk, initial rates on TPL-18A | The Vmax of TPL-DKL6, TPL-ELP10, TPL-EAK16, TPL-18A, and TPL-GFIL16 was higher

In the next experiment the test system is T1, TPL.
T1 construct: 6xHis tag kept, pET28a, E. coli BL21(DE3) host, His-Trap purified; 52 kDa; tetramer

As usually defined, the Km is the concentration of substrate that gives half-maximal velocity.

As to `N[C@@H](Cc1ccc(O)c(O)c1)C(=O)O` [L-DOPA], the Km worked out at 2360 ± 26 µM with TPL-EAK16; 2320 ± 504 µM in the experiment on TPL-DKL6; 2180 ± 356 µM in the experiment with TPL-18A; 2220 ± 14 µM in the experiment on TPL-GFIL16; 2680 ± 129 µM with TPL-ELP10; 2190 µM with TPL.
